Patent US10800741B2 (ANCUREALL PHARMACEUTICAL (SHANGHAI) CO., LTD., priority 2017, dated 2020)
Where two headings read alike, the source gives them in different places.

Key:
Assay type in all cases: cell-based, Human
[1] = tested on: H1581 (FGFR1 amp); test: In vitro growth inhibition of H1581 tumor cells (MTT/CCK8); details: Homo sapiens
[2] = tested on: H1703 (PDGFRa amp); test: In vitro growth inhibition of H1703 tumor cells (MTT/CCK8); details: Homo sapiens
[3] = tested on: MOLM-13 (FLT3-ITD); test: In vitro growth inhibition of MOLM-13 tumor cells (MTT/CCK8); details: Homo sapiens
[4] = tested on: Karpas 299 (NPM-ALK); test: In vitro growth inhibition of Karpas 299 tumor cells (MTT/CCK8); details: Homo sapiens
[5] = tested on: Hep3B2 (FGFR3/4+++); test: In vitro growth inhibition of Hep3B2 tumor cells (MTT/CCK8); details: Homo sapiens, Hep3B, read-out: IC50 Hep3B2 (FGFR3/4+++)
[6] = tested on: Kasumi-1 (KIT N822K); test: In vitro growth inhibition of Kasumi-1 tumor cells (MTT/CCK8); details: Homo sapiens
[7] = tested on: KCL-22 (BCR-ABL); test: In vitro growth inhibition of KCL-22 tumor cells (MTT/CCK8); details: Homo sapiens
[8] = tested on: KATO III (FGFR2 amp); test: In vitro growth inhibition of KATO III tumor cells (MTT/CCK8); details: Homo sapiens, KATO III, read-out: IC50 KATO III (FGFR2 amp)
[9] = NCI-H1581, in vitro growth inhibition (or induction of apoptosis), cells cultured 3 to 5 days, MTT (CCK8), read-out: IC50 H1581 (FGFR1 amp)
[10] = NCI-H1703, in vitro growth inhibition (or induction of apoptosis), cells cultured 3 to 5 days, MTT (CCK8), read-out: IC50 H1703 (PDGFRa amp)
[11] = MOLM-13, in vitro growth inhibition (or induction of apoptosis), cells cultured 3 to 5 days, MTT (CCK8), read-out: IC50 MOLM-13 (FLT3-ITD)
[12] = KARPAS-299, in vitro growth inhibition (or induction of apoptosis), cells cultured 3 to 5 days, MTT (CCK8), read-out: IC50 Karpas 299 (NPM-ALK)
[13] = in vitro growth inhibition (or induction of apoptosis), cells cultured 3 to 5 days, MTT (CCK8)
[14] = Kasumi 1, in vitro growth inhibition (or induction of apoptosis), cells cultured 3 to 5 days, MTT (CCK8), read-out: IC50 Kasumi-1 (KIT N822K)
[15] = KCL-22, in vitro growth inhibition (or induction of apoptosis), cells cultured 3 to 5 days, MTT (CCK8), read-out: IC50 KCL-22 (BCR-ABL)

| SMILES | IC50 [1, 9] [nM] | IC50 [2, 10] [nM] | IC50 [3, 11] [nM] | IC50 [4, 12] [nM] | IC50 [5, 13] [nM] | IC50 [6, 14] [nM] | IC50 [7, 15] [nM] | IC50 [8, 13] [nM] | IC50 ([1]; NCI-H1581, read-out: IC50 H1581 (FGFR1 amp)) [nM] | IC50 ([2]; NCI-H1703, read-out: IC50 H1703 (PDGFRa amp)) [nM] | IC50 ([3]; MOLM-13, read-out: IC50 MOLM-13 (FLT3-ITD)) [nM] | IC50 ([4]; KARPAS-299, read-out: IC50 Karpas 299 (NPM-ALK)) [nM] | IC50 [5] [nM] | IC50 ([6]; Kasumi 1, read-out: IC50 Kasumi-1 (KIT N822K)) [nM] | IC50 ([7]; KCL-22, read-out: IC50 KCL-22 (BCR-ABL)) [nM] | IC50 [8] [nM] |
| --- | --- | --- | --- | --- | --- | --- | --- | --- | --- | --- | --- | --- | --- | --- | --- | --- |
| CCC(=O)Nc1cc2c(Oc3ccc(NC(=O)Nc4cc(C(C)(C)C)n[nH]4)c(Cl)c3)ccnc2cc1OC [Compound 64, N-(4-{4-[3-(5-tert-butyl-2H-pyrazol-3-yl)-ureido]-3-chloro-phenoxy}-7-methoxyquinolin-6-yl)-propionamide] | 8.64 | 13.1 | 8.78 | 186 | 19 | 34.2 | 17.4 | 0.63 |  |  |  |  |  |  |  |  |
| COc1cc2nccc(Oc3ccc(NC(=O)Nc4cc(C(C)(C)C)n[nH]4)c(Cl)c3)c2cc1NC(=O)C1CCCC1 [Compound 65, cyclopentane carboxylic acid (4-{4-[3-(5-tert-butyl-2H-pyrazol-3-yl)-ureido]-3-chloro-phenoxy}-7-methoxy-quinolin-6-yl)-amide] | 218 | 247 | 72 | > 1000 | 160 | 568 | 163 | 11 |  |  |  |  |  |  |  |  |
| COc1cc2nccc(Oc3ccc(NC(=O)Nc4cc(C(C)(C)C)n[nH]4)c(Cl)c3)c2cc1C#N [Compound 67, 1-(5-tert-butyl-2H-pyrazol-3-yl)-3-[2-chloro-4-(6-cyano-7-methoxy-quinolin-4-yloxy)-phenyl]-urea] | 164 | 436 | 72.2 | 863 | 270 | 24.8 | 19.2 | 6.83 |  |  |  |  |  |  |  |  |
| CCOc1cc2ncc(C#N)c(Oc3ccc(NC(=O)Nc4cc(C(C)(C)C)n[nH]4)c(Cl)c3)c2cc1NC(C)=O [Compound 68, N-(4-{4-[3-(5-tert-butyl-2H-pyrazol-3-yl)-ureido]-3-chloro-phenoxy}-3-cyano-7-ethoxy-quinolin-6-yl) acetamide] | > 1000 | > 1000 | > 1000 | > 1000 | > 1000 | > 1000 | > 1000 | > 1000 |  |  |  |  |  |  |  |  |
| CCC(=O)N1CCC(NC(=O)Nc2ccc(Oc3ccnc4cc(OC)c(C(N)=O)cc34)cc2Cl)C1 (stereo not drawn) [Compound 69, 4-{3-chloro-4-[3-(1-propionyl-pyrrolidin-3-yl)-ureido]-phenoxy}-7-methoxyquinolin-6-carboxamide] | > 1000 | > 1000 | > 1000 | > 1000 | > 1000 | > 1000 | > 1000 | > 1000 |  |  |  |  |  |  |  |  |
| C=CC(=O)N1CCC(NC(=O)Nc2ccc(Oc3ccnc4cc(OC)c(C(N)=O)cc34)cc2Cl)C1 (stereo not drawn) [Compound 70, 4-{3-chloro-4-[3-(1-acryloylpyrrolidin-3-yl)-ureido]-phenoxy}-7-methoxyquinolin-6-carboxamide] | > 1000 | > 1000 | > 1000 | > 1000 | > 1000 | > 1000 | > 1000 | > 1000 |  |  |  |  |  |  |  |  |
| CCN1CCN(c2ccc(Nc3cc(NC(=O)Nc4ccc(Oc5ccnc6cc(OC)c(C(N)=O)cc56)c(Cl)c4Cl)ncn3)cc2)CC1 [Compound 71] | > 1000 | > 1000 | > 1000 | > 1000 | > 1000 | > 1000 | ≥ 1000 | > 1000 |  |  |  |  |  |  |  |  |
| CNC(=O)c1cc2c(Oc3ccc(NC(=O)n4nc(C(C)(C)C)cc4N)c(Cl)c3)ccnc2cc1OC [Compound 72] |  |  |  |  |  |  |  |  | 165 | 250 | 50.8 | 736 | 159 | 137 | 117 | 6.18 |
| COc1cc(Oc2ccnc3cc(OC)c(C(N)=O)cc23)ccc1NC(=O)n1nc(C(C)(C)C)cc1N [Compound 73, 4-{4-[(5-amino-3-tert-butyl-pyrazol-1-carbonyl)-amino]-3-methoxy-phenoxy}-7-methoxyquinolin-6-carboxamide] | 138 | 222 | 197 | 88.5 | 288 | 129 | 80.6 | 265 |  |  |  |  |  |  |  |  |
| COc1cc2nccc(Oc3ccc(NC(=O)N4CCc5ccsc5C4)c(Cl)c3)c2cc1C(N)=O [Compound 74, 4-{3-chloro-4-[(4,7-dihydro-5H-thieno[2,3-c]pyridin-6-carbonyl)-amino]-phenoxy}-7-methoxyquinolin-6-carboxamide] | > 1000 | > 1000 | > 1000 | > 1000 | > 1000 | > 1000 | > 1000 | > 1000 |  |  |  |  |  |  |  |  |
| CNC(=O)c1cc2c(Oc3ccc(NC(=O)N4CCN(C)CC4)c(Cl)c3Cl)ccnc2cc1OCCOC [Compound 75, 4-{2,3-dichloro-4-[(4-methyl-piperazin-1-carbonyl)-amino]-phenoxy}-7-(2-methoxy-ethoxy)-quinolin-6-carboxylic acid methylamide] | > 1000 | > 1000 | > 1000 | > 1000 | > 1000 | > 1000 | > 1000 | > 1000 |  |  |  |  |  |  |  |  |
| CNC(=O)c1cc2c(Oc3ccc(NC(=O)N4CCCC4)c(Cl)c3Cl)ccnc2cc1OCCOC [Compound 76, 4-{2,3-dichloro-4-[(pyrrolidin-1-carbonyl)-amino]-phenoxy}-7-(2-methoxy-ethoxy)-quinolin-6-carboxylic acid methylamide] | > 1000 | 370 | > 1000 | > 1000 | > 1000 | ≥ 1000 | > 1000 | 363 |  |  |  |  |  |  |  |  |
| COc1cc2nccc(Nc3ccc(NC(=O)Nc4cc(C(C)(C)C)on4)c(Cl)c3)c2cc1C(N)=O [Compound 77, 4-{4-[3-(5-tert-butyl-isoxazol-3-yl)-ureido]-3-chlorophenylamino}-7-methoxyquinolin-6-carboxamide] | 243 | 212 | 42.5 | > 1000 | 494 | 518 | 294 | 17 |  |  |  |  |  |  |  |  |
| COc1cc2nccc(Nc3ccc(NC(=O)Nc4cc(C(C)(C)C)on4)cc3)c2cc1C(N)=O [Compound 78, 4-{4-[3-(5-tert-butyl-isoxazol-3-yl)-ureido]-phenylamino}-7-methoxyquinolin-6-carboxamide] | 684 | 447 | 1.37 | > 1000 | 502 | > 1000 | > 1000 | 36.6 |  |  |  |  |  |  |  |  |
| COc1cc2nccc(Nc3ccc(NC(=O)Nc4cc(C(C)(C)C)n[nH]4)c(Cl)c3)c2cc1C(N)=O [Compound 79, 4-{4-[3-(5-tert-butyl-2H-pyrazol-3-yl)-ureido]-3-chlorophenylamino}-7-methoxyquinol in-6-carboxamide] | 254 | 278 | 107 | > 1000 | 384 | > 1000 | > 1000 | 19.9 |  |  |  |  |  |  |  |  |
